Data: publication PMC11728142, “A Tachyplesin Antimicrobial Peptide from Theraphosidae Spiders with Potent Antifungal Activity Against Cryptococcus neoformans” (Microorganisms, 2024)
Positions of bridges follow the written chain, without caps; N, C: chain ends. Residues, ends and D or L forms follow the SMILES beside them.

Columns and labels:
[1] = test system: C. neoformans BNCC225501 biofilm; experiment: Biofilm eradication assay, crystal violet; type: cell-based, Cryptococcus neoformans
Experimental: Evaluation of the peptide’s ability to eradicate C. neoformans BNCC225501 biofilms was performed by culturing and harvesting the fungal cells as described in the biofilm inhibition assay above. Incubation of the fungal solution (1 × 10^6 CFU/mL in YPDA media) was conducted in 96-well plates for 48 h at 37 °C. […] Excess stain was washed off with PBS, and 95% ethanol (100 µL) was added. Using a microplate reader, absorbance was determined at 600 nm for quantification of the percentage of biofilm eradication.

[2] = test system: C. neoformans; experiment: Histopathological examination of infected mice; type: in vivo, C57BL/6J female mice; details: 4 mg/kg i.p., lung, liver, spleen and kidney, 12 h post-treatment
Experimental: (§1) Mice systemic infection and the treatment model were performed to assess the dissemination of fungi to target organs as described by with little modifications. C57BL/6J female mice 20 ± 2 g were immunocompromised through the intraperitoneal injection of 150 mg/kg cyclophosphamide for four days prior to infection. C. neoformans was then cultured in YPDA broth media to mid-log phase. […] Fungal pellets were resuspended in the same buffer, and the optical density (OD) value was adjusted to 4 × 10^7 CFU/mL. A volume of 200 µL of the fungal solution was i.p. injected into immunocompromised mice (n = 4), a total of 8 × 10^6 colony-forming units (CFUs) injected per mouse. Twelve hours post-intraperitoneal inoculation of the fungi, treatment was administered. […] Twelve hours post-treatment, the mice were sacrificed, and blood was collected through retro-orbital bleeding. Organs (lung, liver, kidney, and spleen) were also harvested and divided into two parts. One portion was weighed and placed into a grinding tube with 1 mL of normal saline and then homogenized in a tissue grinder to assess the fungal burden, while fixation of the other portion was performed for the histopathology examination. Following a 5-fold serial dilution in normal saline, 100 µL of the homogenates were seeded on YPDA plates and incubated at 37 °C for 48 h before counting colonies. […]

[3] = test system: C. neoformans; experiment: Membrane potential assay, DiSC3(5) dye; type: cell-based, Cryptococcus neoformans; details: 1×, 2×, 4× and 8× the MIC, up to 40 min, ex/em 622/670 nm
Experimental: An overnight culture of C. neoformans cells was washed thrice and re-suspended in the HEPES buffer (with 5 mM of HEPES, 20 mM of glucose and 0.1 M of KCl, pH 7.5) to achieve a cell density of 10^8 CFU/mL. The fungal suspension was then incubated with 10 µM of DiSC3(5) for 30 min at 37 °C in the dark. […] PBS was added as the negative control and amphotericin B as the positive control. The negative control PBS-treated wells were used to establish baseline fluorescence. Fluorescence intensity was measured and recorded over time for up to 40 min at excitation/emission wavelengths of 622/670 nm. An increase in fluorescence indicated membrane depolarization, which implies the disruption of membrane integrity.

[4] = In vivo acute toxicity test; details: mouse, in vivo, ip; mice, single intraperitoneal dose, observed up to 72 h
Experimental: (§2) The peptide was administered in decreasing dosages to the different groups of mice. The concentration was lowered after three repeats if death was immediate, and 6 mice were injected if no death occurred. Following injection, mice were examined visually for any indications of toxicity, and the times at which mice died were recorded at 12/24/48/60 and 72 h. The following signs were used to assess toxicity: hunched back, ruffled fur, poor motility, and total immobility resulting in death.

[5] = test system: C57BL/6J male mice; experiment: In vivo acute toxicity test
Experimental: as §2

[6] = test system: C. neoformans BNCC225501; experiment: Time-killing kinetics assay; type: cell-based, Cryptococcus neoformans
Experimental: C. neoformans fungi grown to mid-log phase was adjusted with normal saline to 1 × 10^5 CFU/mL. […] A volume of 10 µL of the sample was taken at each time point and diluted with sterile normal saline to 100-fold. A total of 100 µL of the dilution was seeded on YPDA media agar plates in three replicates for each concentration per time point. Plates were incubated for 18–24 h at 37 °C, and the number of viable colonies was determined to assess the rate of fungi growth.

[7] = test system: C. neoformans; experiment: Mice systemic infection model, fungal burden; type: in vivo, C57BL/6J female mice; details: immunocompromised mice, 8 × 10^6 CFU/mouse i.p., QS18 1, 2, 4 mg/kg i.p. 12 h after infection, read 12 h post-treatment, n = 4
Experimental: Mice systemic infection and the treatment model were performed to assess the dissemination of fungi to target organs as described by with little modifications. C57BL/6J female mice 20 ± 2 g were immunocompromised through the intraperitoneal injection of 150 mg/kg cyclophosphamide for four days prior to infection. C. neoformans was then cultured in YPDA broth media to mid-log phase. […] Fungal pellets were resuspended in the same buffer, and the optical density (OD) value was adjusted to 4 × 10^7 CFU/mL. A volume of 200 µL of the fungal solution was i.p. injected into immunocompromised mice (n = 4), a total of 8 × 10^6 colony-forming units (CFUs) injected per mouse. Twelve hours post-intraperitoneal inoculation of the fungi, treatment was administered. […] Twelve hours post-treatment, the mice were sacrificed, and blood was collected through retro-orbital bleeding. Organs (lung, liver, kidney, and spleen) were also harvested and divided into two parts. One portion was weighed and placed into a grinding tube with 1 mL of normal saline and then homogenized in a tissue grinder to assess the fungal burden, while fixation of the other portion was performed for the histopathology examination. Following a 5-fold serial dilution in normal saline, 100 µL of the homogenates were seeded on YPDA plates and incubated at 37 °C for 48 h before counting colonies.

[8] = test system: C. neoformans; details: then 4 × MIC on C. neoformans 1 × 10^6 CFU/mL, absorbance 595 nm
Experimental: Incubation of the mixture was performed for 3 h at 37 °C. A volume of 100 µL of fresh yeast extract peptone dextrose agar (YPDA) broth media was added to the mixture followed by a further 16 h of incubation. Included as negative controls were samples containing heat-inactivated protease with no peptide but media only. The inhibition of fungal growth was detected by measuring absorbance at 595 nm with a Synergy H1 Micro plate Reader (Bio-Tek, Winooski, VT, USA). The assays were performed in three replicates.

[9] = test system: C. neoformans BNCC225501 biofilms; experiment: Two-photon laser scanning microscopy of biofilms, FDA/PI; type: cell-based, Cryptococcus neoformans; details: 0.5× to 8 × the MIC, 24 h at 37 °C
Experimental: Fluorescein diacetate (FDA) and Propidium iodide (PI) dyes were utilized to stain live and dead cells, respectively. The fungi were cultured in YPDA broth media at 37 °C to the mid-logarithmic phase. Fungal cells were centrifuged at 3500 rpm for 5 min and then washed thrice with normal saline (0.9% sodium chloride). The fungal suspension was diluted to 1 × 10^9 CFU/mL in YPDA broth media, and, then, 500 µL was added to wells in a 24-well plate. Incubation was performed for 24 h at 37 °C; then, wells were washed thrice with PBS. […] Normal saline was added to the negative control group. […] After incubation, the non-adherent cells were washed with PBS, 250 µL (10 µg/mL) of FDA dye (Solarbio, Beijing, China) was added to each well and left in the dark for 20 min, and, then, 250 µL (5 µg/mL) of PI dye (Solarbio, Beijing, China) was added and co-stained in the dark for 10 min. Microscopy observation was performed utilizing the TPLSM (A1MP+, Nikon, Tokyo, Japan) at 555 nm and 488 nm excitations for PI and FDA, respectively.

[10] = test system: chymotrypsin; details: peptide 1 mg/mL, peptide:enzyme 250:1, 5 mM CaCl2, 50 mM Tris-HCl pH 7.4, 37 °C, time points 0 to 12 h, SDS-PAGE bands
Experimental: (§3) The mixture was heated for 10 min at 95 °C to halt enzymatic reaction. A solution of 20 µL of the SDS-PAGE loading buffer (5×) was added to 80 µL of the sample, mixed by vortexing and heated for 5 min at 95 °C. SDS-PAGE analysis was performed using Omni-PAGE™Precast HEPES-Tris Gels. LL37 and colistin antibiotics were used as controls.

[11] = test system: trypsin; details: peptide 1 mg/mL, peptide:enzyme 250:1, 5 mM CaCl2, 50 mM Tris-HCl pH 7.4, 37 °C, time points 0 to 12 h, SDS-PAGE bands
Experimental: as §3

[12] = test system: C. neoformans; experiment: Scanning and transmission electron microscopy; type: cell-based, Cryptococcus neoformans; details: 10× the MIC; 14 µM, 2 h at 37 °C
Experimental: C. neoformans were cultured in YPDA broth to mid-log phase and diluted with normal saline (0.9% sodium chloride) to 1 × 10^9 CFU/mL. The cultures were centrifuged at 3500 rpm for 5 min, and the supernatant was discarded. After three washes with normal saline, the fungal pellets were re-suspended in normal saline. […] At 2 h post-incubation, the suspensions were centrifuged at 3500 rpm for 5 min, the supernatant was aspirated, and the pellets were re-suspended/fixed in 1 mL of 2.5% glutaraldehyde. Fixation was performed overnight at 4 °C. Next, the samples were washed in normal saline and dehydrated in a graded series of ethanol (50%, 70%, 90%, and 100%). In the end, the pellets were placed on aluminum stubs, vacuum sputter-coated in gold, and the Hitachi S-3000N (Tokyo, Japan) SEM was used to examine the membrane morphology.
For transmission electron microscopy, the cells were cultured and harvested as described above. After dehydration, cells were embedded and stained for observation under transmission electron microscopy.

[13] = test system: Cryptococcus neoformans_BNCC225501; experiment: microbe, parasite or virus in culture; details: oxidized QS18 compared with fluconazole
Experimental: To achieve a final cell concentration of 2 × 10^6 CFU/mL, mid-log phase cultures were diluted with a Yeast and Mold (YM) broth and then put to 96-well plates with two-fold serially diluted peptides (from 0.1 to 89.8 µM) in a 1:1 ratio.

[14] = test system: TNF-α, IL-6, IL-1β, MCP-1; experiment: Plasma cytokine levels of infected mice, ELISA; type: in vivo, C57BL/6J female mice; details: QS18 1, 2, 4 mg/kg i.p., n = 4
Experimental: as §1, with “parts.” for “parts. One portion was weighed and placed into a grinding tube with 1 mL of normal saline and then homogenized in a tissue grinder to assess the fungal burden, while fixation of the other portion was performed for the histopathology examination. Following a 5-fold serial dilution in normal saline, 100 µL of the homogenates were seeded on YPDA plates and incubated at 37 °C for 48 h before counting colonies.”
Blood collected through retro-orbital bleeding was centrifuged for 25 min at 5000 rpm to isolate plasma. Following the manufacturer’s guidelines, standard enzyme-linked immunosorbent assay (ELISA) kits were used to quantify the cytokine levels of tumor necrosis factor-α (TNF-α), interleukin-6 (IL-6), interleukin--1β (IL-1β), and monocyte chemoattractant protein-1 (MCP-1) in the plasma.

Q: What does the source list for `CC(C)[C@@H]1NC(=O)[C@H](CCCCN)NC(=O)[C@H](Cc2ccccc2)NC(=O)[C@@H](NC(=O)[C@@H](N)CCC(N)=O)CSSC[C@@H](C(=O)N[C@@H](CO)C(=O)N[C@@H](CCCNC(=N)N)C(=O)N[C@@H](CO)C(N)=O)NC(=O)[C@H](CCCCN)NC(=O)[C@H]([C@@H](C)O)NC(=O)[C@H](Cc2ccccc2)NC(=O)[C@@H]2CSSC[C@H](NC1=O)C(=O)N[C@@H](Cc1ccccc1)C(=O)N[C@@H](CCCNC(=N)N)C(=O)N[C@@H](CCCCN)C(=O)N[C@@H](CCCNC(=N)N)C(=O)N2` [QS18] (H-QCFKVCFRKRCFTKCSRS-NH2; disulfide 2-15, 6-11; N-terminus and C-terminus assumed)?
A: eradication of preformed biofilms ([1]; 1 × MIC, 48 h preformed biofilm, crystal violet OD600): up to 65%; eradication of biofilms ([1]; sub-MIC levels): over 50%; tissue morphology, H&E staining [2]: near-normal tissue morphology; DiSC3(5) fluorescence (membrane depolarization) [3]: significant increase in fluorescence; LD50 at 72 h [4]: 30 mg/kg; LD50 i.p. compared to intravenous administration [5]: two-fold; acute toxicity observation ([5]; intravenous, 10 mg/kg, over 72 hours): no signs of toxicity or death; intravenous toxicity ([5]; intravenous, 20 mg/kg and 40 mg/kg): lethal effect; time to no fungal growth ([6]; 5× the MIC, 1 × 10^5 CFU/mL, 37 °C, colony count): 120 min; time to kill fungi ([6]; C. neoformans BNCC 225501, as worded in the discussion): within an hour; fungal burden (CFU) in lung, liver, kidney, spleen and blood [7]: significant suppression of fungi dissemination to target organs; antifungal activity after chymotrypsin exposure ([8]; 2 h with chymotrypsin (250:1) at 37 °C): maintained its activity; antifungal efficacy after trypsin exposure ([8]; 2 h with trypsin (250:1) at 37 °C): reduced antifungal efficacy; viability of biofilm cells, PI/FDA fluorescence [9]: decreased dose-dependently; proteolytic stability with chymotrypsin [10]: remained stable in chymotrypsin even after 12 h of incubation; proteolytic stability with trypsin [11]: complete degradation after 1 h; cell morphology by SEM and TEM [12]: leaked cytoplasmic contents, as well as irregular cell morphology with shrunken cell surfaces; MIC times lower than that of fluconazole [13]: approximately fourteen; plasma IL-1β, IL-6, TNF-α and MCP-1 [14]: dose-dependent reductions in these inflammatory markers
